Data set [1] has as its system mice. To be noted: mouse, in vivo; cited from earlier work.
For data set [2] the following is noted: human.
For data set [3] the following is noted: rat.

As for Batrachotoxin, the LD50 in mice in data set [1] was 2 µg/kg. Regarding `CCN1C[C@]2(COC)[C@H](O)C[C@H](OC)[C@@]34[C@@H]5C[C@@]6(O)[C@H](OC(=O)c7ccccc7)[C@@H]5[C@@](OC(C)=O)([C@@H]([C@H](OC)[C@H]23)[C@@H]14)[C@@H](O)[C@@H]6OC` [aconitine], the “Change in penetration with application time” value in data set [2] was “increased penetration occurring at 4 and 10 hours of application in comparison to 1 hour”. In addition, the “Skin penetration behavior (layer reached)” value in data set [3] was “Complete skin penetration”.
